A short description of series [1]: Solubility of PGRs in solvents. An excerpt:
In some examples, the ratios of the plurality of non-aqueous solvents may be selected based on a relative amount and type of PGR compound selected for the agrochemical formulation. For example, an amount (e.g., vol. %) of a high dielectric solvent may be selected to fully dissolve selected amounts (e.g., vol. %) of one or more PGRs of the plurality of selected PGRs, which may only be soluble, or at least more soluble in, the high dielectric solvent. Additionally, an amount of (e.g., vol. %) of a medium dielectric solvent and/or a low dielectric solvent may be selected for similar reasons.

The nature of series [2]: Storage stability of aqueous formulation CE1, PGR content after 1 year. Type of series: physicochemical. The following applies: in aqueous formulation CE1, 1 year of storage. As to the method:
Comparative Example 1: A combination of three PGRs (kinetin, GA3, and IBA) were dissolved in water along with a defoamer and a phosphate ester surfactant at the ratios specified in Table CE1: […] This is typical behavior for an aqueous system containing these PGRs.

Series [3] in a line: Accelerated aging test of formulation E1, 54° C. for 2 weeks. The following applies: for 2-Weeks at 54° C.: in formulation E1, after 2 weeks at 54° C.; for Initial Assay: in formulation E1, before accelerated aging; for Percent Change: in formulation E1, initial vs 2 weeks at 54° C. The series is classed as physicochemical. The protocol: Example 1 (E1): A combination of three PGRs (kinetin, GA3, and IBA) were dissolved in a ternary solvent system containing a high dielectric solvent (DMSO), a medium dielectric solvent (HALLCOMID® M-8-10), and a low dielectric solvent (methyl soyate) with surfactants (ETHOX® CO-40 and ETHFAC® 140) at the ratios specified in Table E1:
The formulation was tested in an accelerated aging test by storing the sample at 54° C. for 2 weeks and measuring the content of the PGRs before and after testing. This was to follow the EPA's Office of Pesticide Programs guidelines for product chemistry and stability.
Table 2 illustrates initial formulation stability and stability at two-weeks as a percentage change in the amount (vol. %) of each PGR: […]

For series [4] the following is noted: cited from earlier work.

Like-named read-outs stand apart in the source and are kept apart here.

Turning to `C=C1C[C@]23C[C@@]1(O)CC[C@H]2[C@@]12C=C[C@H](O)[C@@](C)(C(=O)O1)[C@@H]2[C@@H]3C(=O)O` [GA3, (3S,3aS,4S,4aS,7S,9aR,9bR,12S)-7,12-Dihydroxy-3-methyl-6-methylene-2-oxoperhydro-4a,7-methano-9b,3-propenoazuleno[1,2-b]furan-4-carboxylic acid], the “solubility in DMSO” value in series [1] (DMSO) was 1.5%. In addition, the “solubility in vegetable oil or modified vegetable oil solvents” value in series [1] (vegetable oil or modified vegetable oil solvents) is given as “virtually insoluble”. Moreover, in series [2], the “detected level of active ingredient after 1 year of storage” value (from here on “detected level of active ingredient”) is recorded as 0.0005% and the “loss of active ingredient after 1 year of storage” value (“loss of active ingredient” below) was determined as 91%. For the same molecule, in series [3], the “2-Weeks at 54° C.” value is 0.055%, the “Initial Assay” value is on record as 0.058% and the “Percent Change” value is listed as 5.17%.

In the case of `O=C(O)CCCc1c[nH]c2ccccc12` [IBA, indole-3-butyric acid], in series [2], the “detected level of active ingredient” value is listed as “not detected” and the “loss of active ingredient” value was determined as 100%. Moreover, in series [3], the “2-Weeks at 54° C.” value was 0.047%, the “Initial Assay” value is reported as 0.047% and the “Percent Change” value amounted to 0.00%. Also, in series [4], the “chemical breakdown in water” value is reported as “facilitates the chemical breakdown”.

As to `c1coc(CNc2ncnc3[nH]cnc23)c1` [kinetin], in series [1], the “solubility in DMSO” value turned out to be 3.3% and the “solubility in vegetable oil or modified vegetable oil solvents” value is listed as “virtually insoluble”. Also, in series [2], the “detected level of active ingredient” value is 0.0015% and the “loss of active ingredient” value worked out at 83%. Also, in series [3], the “2-Weeks at 54° C.” value came out at 0.090%, the “Initial Assay” value is listed as 0.099% and the “Percent Change” value is recorded as 9.09%.

The record behind these values is patent publication US20250241297A1, “TERNARY SOLVENT SYSTEMS FOR STABLE PLANT GROWTH REGULATOR FORMULATIONS” (priority 2024, published 2025).
